Legend:
Type in all cases: cell-based
[1] = tested on: P. aeruginosa in preformed biofilm; assay: Bacterial density of P. aeruginosa in preformed biofilm, OD600 (Example 7); details: in combination with gentamicin; 6 h; phospholipid 512, 1024, 2048 μg/ml; FIGS. 10A-10D
Description: We performed in vitro studies of the capacity of phospholipids together with antibiotics to eradicate preformed bacterial biofilms. The tests were conducted as follows. Biofilm formation was obtained by culturing P. aeruginosa in cation-adjusted Mueller Hinton Broth after incubation at 37 degrees C. for 24 hours in 96 well plates. The medium was then removed and replaced by treatment solutions of gentamicin, phospholipids plus gentamicin, or control solutions. Four different phospholipids (MAPCHO-10, MAPCHO-12, MAPCHO-14, and MAPCHO-16) were tested at three different phospholipid test concentrations (512 μg/ml, 1024 μg/ml, and 2048 μg/ml). After 24 hours at 37 degrees C., media was removed and fresh medium was added and the 96-well plates were incubated at 37 degrees C. for 6 hours. Bacterial density was then analyzed and measured at OD600.

[2] = tested on: MRSA; assay: Inhibition of growth of planktonic MRSA, OD600 (Example 10); details: in combination with gentamicin, compared to gentamicin alone; 6 h; phospholipid 256, 512, 1024 μg/ml
Description: We performed in vitro studies of the capacity of phospholipids together with antibiotics to inhibit the growth of planktonic bacteria. The tests were conducted as follows. Freshly grown MRSA was quantitated and placed in 96-well plates together with gentamicin alone, phospholipids plus gentamicin, or control solutions. Two different phospholipids (MAPCHO-10 and MAPCHO-12) were tested at three different phospholipid test concentrations (256 μg/ml, 512 μg/ml, and 1024 μg/ml). After 24 hours at 37 degrees C., media was removed and fresh medium was added and the 96-well plates were incubated at 37 degrees C. for 6 hours. Bacterial density was then analyzed and measured at OD600.

[3] = tested on: S. aureus biofilm formation; assay: Prevention of S. aureus biofilm formation at 6 h, crystal violet (Example 9); details: in combination with gentamicin, phospholipid 256, 512, 1024 μg/ml
Description: We performed in vitro tests of the capacity of phospholipids together with antibiotics to prevent formation of biofilms. Freshly grown S. aureus was quantitated and placed in 96-well plates together with gentamicin alone, phospholipids plus gentamicin, or control solutions. Two different phospholipids ([…]-10 and […]-12) were tested at three different phospholipid test concentrations (256 μg/ml, 512 μg/ml, and 1024 μg/ml). After 6 hours at 37 degrees C., the fluids were removed and the wells stained with crystal violet, and then the density of crystal violet in the wells was quantitated.

What does the source list for CCCCCCCCCCCCOP(=O)([O-])OCC[N+](C)(C)C [MAPCHO-12, N-dodecylphosphocholine]?
inhibition of P. aeruginosa bacterial growth in preformed biofilm relative to gentamicin alone [1]: more effective; inhibition of MRSA growth [2]: strong inhibition; prevention of S. aureus biofilm formation compared to gentamicin alone [3]: more effective
